ChEMBL document CHEMBL3808273, “Steroids from the rhizome of Anemarrhena asphodeloides and their cytotoxic activities” (Bioorg Med Chem Lett, 2016)

Columns and labels:
Bcap37 = assay: Cytotoxicity against human Bcap37 cells assessed as growth inhibition after 48 hrs by MTT assay; assay type: functional, cell-based; details: Bcap37, 48 h
HepG2 = assay: Cytotoxicity against human HepG2 cells assessed as growth inhibition after 48 hrs by MTT assay; assay type: functional, cell-based; details: HepG2, 48 h
A549 = assay: Cytotoxicity against human A549 cells assessed as growth inhibition after 48 hrs by MTT assay; assay type: functional, cell-based; details: A549, 48 h
[1] = Cytotoxicity against human Hep3B cells assessed as growth inhibition after 48 hrs by MTT assay; assay type: functional, cell-based, Hep 3B2
MCF7 = assay: Cytotoxicity against human MCF7 cells assessed as growth inhibition after 48 hrs by MTT assay; assay type: functional, cell-based; details: MCF7, 48 h

C[C@@H](CCC1(O)O[C@H]2C[C@H]3[C@@H]4CC[C@H]5C[C@@H](O)CC[C@]5(C)[C@H]4CC[C@]3(C)[C@H]2[C@@H]1C)CO[C@@H]1O[C@H](CO)[C@@H](O)[C@H](O)[C@H]1O (some centres not stated)
IC50 (Bcap37): > 50 µM
IC50 (HepG2): > 50 µM
IC50 (A549): > 50 µM
IC50 [1]: > 50 µM
IC50 (MCF7): > 50 µM

C[C@H]1CC[C@@]2(OC1)O[C@H]1C[C@H]3[C@@H]4CC[C@H]5C[C@@H](O)CC[C@]5(C)[C@H]4CC[C@]3(C)[C@H]1[C@@H]2C
IC50 (Bcap37): > 50 µM
IC50 (HepG2): > 50 µM
IC50 (A549): > 50 µM
IC50 [1]: > 50 µM
IC50 (MCF7): > 50 µM

C[C@@H]1C(=O)O[C@H]2C[C@H]3[C@@H]4CC[C@H]5C[C@@H](O)[C@@H](O)C[C@]5(C)[C@H]4CC[C@]3(C)[C@H]21
IC50 (Bcap37): > 50 µM
IC50 (HepG2): > 50 µM
IC50 (A549): > 50 µM
IC50 [1]: > 50 µM
IC50 (MCF7): > 50 µM

C=C1CC[C@@]2(OC1)O[C@H]1C[C@H]3[C@@H]4CC[C@H]5C[C@@H](O[C@@H]6O[C@H](CO)[C@H](O)[C@H](O)[C@H]6O[C@@H]6O[C@H](CO)[C@@H](O)[C@H](O)[C@H]6O)CC[C@]5(C)[C@H]4CC[C@]3(C)[C@H]1[C@@H]2C
IC50 (Bcap37): 7.72 µM
IC50 (HepG2): 6.47 µM
IC50 (A549): 5.62 µM
IC50 [1]: 9.98 µM
IC50 (MCF7): 13.1 µM

C[C@@H]1C(=O)O[C@H]2C[C@H]3[C@@H]4CC[C@H]5C[C@@H](O[C@@H]6O[C@H](CO)[C@H](O)[C@H](O)[C@H]6O[C@@H]6O[C@H](CO)[C@@H](O)[C@H](O)[C@H]6O)CC[C@]5(C)[C@H]4CC[C@]3(C)[C@H]21
IC50 (Bcap37): > 50 µM
IC50 (HepG2): > 50 µM
IC50 (A549): > 50 µM
IC50 [1]: > 50 µM
IC50 (MCF7): > 50 µM

CC(=O)C1=C[C@H](O)[C@H]2[C@@H]3CC[C@H]4C[C@@H](O[C@@H]5O[C@H](CO)[C@H](O)[C@H](O)[C@H]5O[C@@H]5O[C@H](CO)[C@@H](O)[C@H](O)[C@H]5O)CC[C@]4(C)[C@H]3CC[C@]12C
IC50 (Bcap37): > 50 µM
IC50 (HepG2): > 50 µM
IC50 (A549): > 50 µM
IC50 [1]: > 50 µM
IC50 (MCF7): > 50 µM

C[C@@H]1CC[C@]2(OC1)O[C@@H]1[C@@H](O)[C@@H]3[C@H]4CC[C@@H]5C[C@H](O[C@H]6O[C@@H](CO)[C@@H](O)[C@@H](O)[C@@H]6O[C@H]6O[C@@H](CO)[C@H](O)[C@@H](O)[C@@H]6O)CC[C@@]5(C)[C@@H]4CC[C@@]3(C)[C@@H]1[C@H]2C
IC50 (Bcap37): > 50 µM
IC50 (HepG2): > 50 µM
IC50 (A549): > 50 µM
IC50 [1]: > 50 µM
IC50 (MCF7): > 50 µM

C[C@@H]1CO[C@]2(O[C@@H]3C[C@@H]4[C@H]5CC[C@@H]6C[C@H](O[C@H]7O[C@@H](CO)[C@@H](O)[C@@H](O)[C@@H]7O[C@H]7O[C@@H](CO)[C@H](O)[C@@H](O)[C@@H]7O)CC[C@@]6(C)[C@@H]5CC[C@@]4(C)[C@@H]3[C@H]2C)[C@H](O)C1
IC50 (Bcap37): > 50 µM
IC50 (HepG2): > 50 µM
IC50 (A549): > 50 µM
IC50 [1]: > 50 µM
IC50 (MCF7): > 50 µM

C[C@@H]1CC[C@@]2(OC1)O[C@H]1C[C@H]3[C@@H]4CC[C@H]5C[C@@H](O[C@H]6O[C@@H](CO)[C@@H](O)[C@@H](O)[C@@H]6O[C@H]6O[C@@H](CO)[C@H](O)[C@@H](O)[C@@H]6O)[C@@H](O)C[C@]5(C)[C@H]4CC[C@]3(C)[C@H]1[C@@H]2C
IC50 (Bcap37): > 50 µM
IC50 (HepG2): > 50 µM
IC50 (A549): > 50 µM
IC50 [1]: > 50 µM
IC50 (MCF7): > 50 µM

C[C@H]1CC[C@@]2(OC1)O[C@H]1C[C@H]3[C@@H]4CC[C@H]5C[C@@H](O[C@@H]6O[C@H](CO)[C@H](O)[C@H](O)[C@H]6O[C@@H]6O[C@H](CO)[C@@H](O)[C@H](O)[C@H]6O)CC[C@]5(C)[C@H]4CC[C@]3(C)[C@H]1[C@@H]2C
IC50 (Bcap37): 5.37 µM
IC50 (HepG2): 4.64 µM
IC50 (A549): 7.33 µM
IC50 [1]: 0.35 µM
IC50 (MCF7): 20.5 µM

C[C@H]1CC[C@@]2(OC1)O[C@H]1C[C@H]3[C@@H]4CC[C@H]5C[C@@H](OC6O[C@H](CO)[C@@H](O)[C@H](O)[C@@H]6O[C@@H]6O[C@H](CO)[C@@H](O)[C@H](O)[C@H]6O)CC[C@]5(C)[C@H]4CC[C@]3(C)[C@H]1[C@@H]2C (some centres not stated)
IC50 (Bcap37): 9.5 µM
IC50 (HepG2): 6.42 µM
IC50 (A549): 8.42 µM
IC50 [1]: 13.8 µM
IC50 (MCF7): 25.5 µM

O=c1[nH]cc(F)c(=O)[nH]1 [FLUOROURACIL]
IC50 (Bcap37): 5.18 µM
IC50 [1]: 23 µM
